Test system: female cynomolgus monkeys (Macaca Fascicularis)
Test: In-vivo action on fertility in non-human primates (mating study)
Conditions: 6 months, 10 mg/kg (Example 17 once daily, Example 56 twice daily)
Protocol: 4.4 In-Vivo Action on Fertility in Non-Human Primates (Cynomolgus):
In order to study the effect of substances on fertility, mating studies can be performed in monkeys (Jensen et al. Contraception 81 (2010) 165-171). For this, the test substances are administered to female cynomolgus monkeys (Macaca Fascicularis) which are being kept in groups, then the animals are mated with a male animal. Matings are checked for by sperm detection in daily vaginal smears. Pregnancies resulting therefrom are identified by hormone determinations and ultrasound examinations. Through the changes in the serum oestradiol concentrations during the cycle, (rise before the midcycle LH peak), the fertile phase within a cycle of the individual animals can be determined Matings in this fertile period are described as “timed matings” (matings in the fertile phase). Apart from the absolute number of pregnancies occurring, the effect on the fertility can also be expressed as pregnancies per “timed matings”.
To test the action of EP2 receptor antagonists on fertility in monkeys, Examples 17 and 56 according to the invention were administered over 6 months, dissolved in 0.5 ml castor oil. Example 17 was administered once daily at a dosage of 10 mg/kg (n=10 animals), while Example 56 was administered twice daily at a dosage of 10 mg/kg (n=9 animals). Only the vehicle was administered to a control group (n=10 animals). In the first month of the treatment, no male animal was placed with the female animals. After this, female and male animals were kept together over 5 months, with detection of pregnancies and cycle monitoring.

For `COCCNC(=O)c1ccc2nn(CC3CCN(C(=O)c4ccc(Oc5ccc(C(F)(F)F)cc5)cc4)CC3)cc2c1C` [Example 17, N-(2-methoxyethyl)-4-methyl-2-[(1-{4-[4-(trifluoromethyl)-phenoxy]benzoyl}-piperidin-4-yl)-methyl]-2H-indazol-5-carboxamide], the “% Pregnancies/"timed mating"” value was 6% and the Pregnancies was 3.
